For test [1], the target named is T1, LecA (Pseudomonas aeruginosa, UniProt Q05097).
T1 construct: made in house
Briefly: Competitive binding assay based on fluorescence polarization. How it is done: All synthesized galactosides were then evaluated for LecA inhibition using a competitive binding assay based on fluorescence polarization (Figure S1).[24]
Expression and purification of LecA as well as competitive binding by fluorescence polarization was performed as described by Joachim et al..[9] The assay was performed in TBS/Ca2+ buffer (20 mM Tris, 137 mM NaCl, 2.6 mM KCl at pH 7.4 supplemented with 1 mM CaCl2) in presence of 25% DMSO. Averages and standard deviations were calculated from at least three independent experiments. […]
RR OR In h i b i to r [µ M ]
R R In h i b i to r [µ M ] […]
R In h i b i to r [µ M ] 30 L2
30 F2 40 K2 In h i b i to r [µ M ] […]
In h i b i to r [µ M ] In h i b i to r [µ M ]
Figure S1: Evaluation of amide divalent LecA ligands in a competitive binding assay based on fluorescence […]
representative experiment is shown or each series. Averages and standard deviations from at least three independent titrations of triplicates each.
[…] Fluorescence polarization [mP] -1 0 1 2 3 0 1001010 Me-α-Gal pNO2-Ph-β-Gal 1000 Inhibitor [µM] Fluorescence polarization [mP])
In general terms: Fluorescence polarisation rises when a labelled molecule tumbles more slowly, as on binding a larger partner.

Test [2] deals with T1, LecA. Description: Direct binding to immobilized LecA by surface plasmon resonance (SPR). Conditions: for Relative potency r.p. (SPR): compared to respective monovalent compound in each series; for kon: SPR single-cycle kinetics, 25 °C, N=3 (I1 N=1). Here is the method: K d values were oscillating with the number of methylene units present in the linker, presumably linked to the zig‐zag geometry of the hydrocarbon chain.
Expression and purification of LecA as well as competitive binding by fluorescence polarization was performed as described by Joachim et al..[9] […]
Surface plasmon resonance experiments were performed on a BIACORE X100 instrument (GE Healthcare) at 25 °C as described by Zahorska et. al..[8] Averages and standard deviations were calculated from three independent experiments. […]
Figure S3: SPR of divalent LecA ligands from benzene series. Sensorgrams obtained from SPR single-cycle kinetics experiments. Five different concentrations of each compound (0, 10, 50, 100, 200 nM) were sequentially injected to obtain the experimental sensorgrams (blue lines), which were then fitted by a 1:1 model (orange) on BIACORE evaluation software. […]
Figure S4: SPR of divalent LecA ligands from pyridine and sulfonated series. Sensorgrams obtained from SPR single-cycle kinetics experiments. Five different concentrations of each compound (0, 10, 50, 100, 200 nM) were sequentially injected to obtain the experimental sensorgrams (blue lines), which were then fitted by a 1:1 model (orange) on BIACORE evaluation software.
(also on this page, place not known: Response (RU)0 Response (RU)0 Response (RU) Response (RU) Response (RU) Response (RU) 030060090012001500) […]
(In general: In SPR one partner is held on a chip, and binding of the other changes the refractive index at the surface.)

Test [3] has as its target T1, LecA. Description: LecA binding and cellular uptake by fluorescence confocal microscopy. It is filed as cell-based. Particulars: for Concentration for complete inhibition of LecA binding and cellular uptake: 0.5 μM LecA-AF488, H1299 cells, confocal microscopy; for LecA binding to H1299 cells (fluorescence signal): 10 μM inhibitor. Here is the method: The ability of H2 and L2 to diminish LecA binding to host receptors at the plasma membrane and its subsequent internalization into H1299 cells was further analyzed by confocal fluorescence microscopy. Here, the applied LecA concentration was increased to improve signal to noise and consequently image quality and inhibitors were preincubated with 0.5 μM LecA before addition to the cells. […] Confocal microscopy images thus confirmed that the divalent inhibitors can prevent LecA binding to the cell surface and reduce lectin uptake in a concentration‐dependent manner. […]
LecA binding and cellular uptake by fluorescence confocal microscopy
Between 5 and 7 × 10^4 cells were seeded on a 12 mm glass coverslip to which they adhered overnight, at 37 °C and 5% CO2. The next day, the cells were incubated with 0.5 µM LecA-AF488 for 30 min at 4 °C and protected from light. Where indicated, LecA was firstly preincubated with PNPG, G2, K2, H2 or L2 in RPMI medium, for 30 min at room temperature and protected from light and then added to the cells for further incubation (30 min, 4 °C).
Subsequently, cells were washed with PBS (-/-) to remove the unbound lectin and inhibitors and the samples were incubated for 1 h at 37 °C. After the lectin stimulation, cells were washed twice with ice-cold PBS (-/-), fixed with 4% paraformaldehyde solution for 15 min and quenched with 50 mM ammonium chloride for 10 min. The membrane was permeabilized and cells were blocked by 0.2% Saponin in 3% BSA in PBS (w/v) for 30 min. The cell nuclei were counterstained with DAPI (5 × 10-9 g/L), and the samples were mounted on coverslips using Mowiol 4-88 (containing the anti-bleaching reagent DABCO). Samples were visualized with laser scanning confocal microscope system from Nikon (Eclipse Ti-E, A1R), equipped with a 60x oil immersion objective and a numerical aperture (NA) of 1.49. The images were analyzed

Structures are written as SMILES.

T1 sequence (Q05097 whole entry): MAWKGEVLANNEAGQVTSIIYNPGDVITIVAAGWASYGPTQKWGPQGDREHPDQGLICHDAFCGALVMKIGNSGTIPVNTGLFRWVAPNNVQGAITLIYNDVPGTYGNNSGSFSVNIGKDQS

One may read the IC50 as the point on the concentration scale where inhibition reaches its midpoint. The Kd is the concentration at which binding is half-saturated. A high value points to a looser complex. As to `COc1ccc(NC(=O)CCc2ccc(O[C@@H]3O[C@H](CO)[C@H](O)[C@H](O)[C@H]3O)cc2)cn1` [Compound G2], on LecA [1], the IC50 came to 14.3 ± 7.2 µM. In addition, at LecA [2], the Kd amounted to 2.97 ± 0.08 µM and the “Relative potency r.p. (SPR)” value is reported as 1. Moreover, at LecA [3], the “Concentration for complete inhibition of LecA binding and cellular uptake” value was 75 µM.
A word on the koff: it is a measure of how fast the partners let go of each other. On LecA [1], `O=C(/C=C/c1ccc(O[C@@H]2O[C@H](CO)[C@H](O)[C@H](O)[C@H]2O)cc1)Nc1ccc(OCCOc2ccc(NC(=O)/C=C/c3ccc(O[C@@H]4O[C@H](CO)[C@H](O)[C@H](O)[C@H]4O)cc3)cn2)nc1` [Compound H1] registered an IC50 of 8 ± 4.3 µM. Besides, at LecA [2], binding was put at a Kd of 0.0137 ± 0.0016 µM, the koff was determined as 0.00165 ± 0.00012 s⁻¹, the kon was 121 ± 6.8 x10^3/Ms and the “Relative potency r.p. (SPR)” value amounted to 217.
The corresponding values for `O=C(CCc1ccc(O[C@@H]2O[C@H](CO)[C@H](O)[C@H](O)[C@H]2O)cc1)Nc1ccc(OCCOc2ccc(NC(=O)CCc3ccc(O[C@@H]4O[C@H](CO)[C@H](O)[C@H](O)[C@H]4O)cc3)cc2)cc1` [Compound D2] are 4.5 ± 1.8 µM, 0.0231 ± 0.0003 µM, 0.00284 ± 6e-05 s⁻¹, 123 ± 4.1 x10^3/Ms and 233.
Take `O=C(CCc1ccc(O[C@@H]2O[C@H](CO)[C@H](O)[C@H](O)[C@H]2O)cc1)Nc1ccc(OCCOc2ccc(NC(=O)CCc3ccc(O[C@@H]4O[C@H](CO)[C@H](O)[C@H](O)[C@H]4O)cc3)cn2)nc1` [Compound H2]: the 50% inhibitory concentration (IC50) at LecA [1] is 4.8 ± 2.2 µM. Also, at LecA [2], the Kd was found to be 0.0099 ± 0.0001 µM, the koff was 0.00141 ± 5e-05 s⁻¹, the kon is recorded as 142 ± 3.5 x10^3/Ms and the “Relative potency r.p. (SPR)” value is given as 300. In addition, the “LecA binding to H1299 cells (fluorescence signal)” value at LecA [3] is “remarkably decreased”.
As to `O=C(CCc1ccc(O[C@@H]2O[C@H](CO)[C@H](O)[C@H](O)[C@H]2O)cc1)Nc1ccc(CCc2ccc(NC(=O)CCc3ccc(O[C@@H]4O[C@H](CO)[C@H](O)[C@H](O)[C@H]4O)cc3)cc2S(=O)(=O)O)c(S(=O)(=O)O)c1` [Compound L2], the IC50 on LecA [1] was determined as 4.6 ± 2.2 µM. Further, at LecA [2], binding was put at a Kd of 0.0328 ± 0.0015 µM, the dissociation rate constant (koff) was determined as 0.00707 ± 0.0011 s⁻¹, the kon is listed as 215 ± 29 x10^3/Ms and the “Relative potency r.p. (SPR)” value was determined as 115. Also, the “LecA binding to H1299 cells (fluorescence signal)” value on LecA [3] was “remarkably decreased”.
At LecA [1], `O=C(/C=C/c1ccc(O[C@@H]2O[C@H](CO)[C@H](O)[C@H](O)[C@H]2O)cc1)Nc1ccc(OCCOc2ccc(NC(=O)/C=C/c3ccc(O[C@@H]4O[C@H](CO)[C@H](O)[C@H](O)[C@H]4O)cc3)cc2)cc1` [Compound D1] gave an IC50 of 5.6 ± 3.1 µM. In addition, at LecA [2], binding was put at a Kd of 0.0407 ± 0.003 µM, the koff was found to be 0.00249 ± 0.00028 s⁻¹, the kon was 61.1 ± 2.5 x10^3/Ms and the “Relative potency r.p. (SPR)” value is on record as 128.
On to `Cc1ccc(NC(=O)CCc2ccc(O[C@@H]3O[C@H](CO)[C@H](O)[C@H](O)[C@H]3O)cc2)cc1S(=O)(=O)O` [Compound K2], for which the IC50 on LecA [1] was found to be 14.4 ± 3.6 µM. Further, at LecA [2], the Kd stood at 3.79 ± 0.1 µM and the “Relative potency r.p. (SPR)” value was 1. The “Concentration for complete inhibition of LecA binding and cellular uptake” value on LecA [3] was found to be 75 µM.

The record behind these values is paper PMC10107299, “Neutralizing the Impact of the Virulence Factor LecA from Pseudomonas aeruginosa on Human Cells with New Glycomimetic Inhibitors” (Angewandte Chemie (International Ed. in English), 2023).
